Reference: patent US20240025884A1 (Dong-A ST Co., Ltd., priority 2022, published 2024)

Molecular target: GCN2 (Homo sapiens (Human), UniProt Q9P2K8)
Experiment: GCN2 Biochemical Assay (TR-FRET, GFP-eIF2S1 substrate phosphorylation)
Details: read-out: IC50 (GCN2 Inhibitory Activity)
Method in brief: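 In-house GCN2 (1.6 nM 2× stock) phosphorylates GFP-eIF2S1 (50 nM 2× stock) with ATP (0.2 mM 2× stock) and tRNA, pH 7.5, 70 min at room temperature; 10-point 3.16-fold compound series. TR-FRET detection with Tb-anti-phospho antibody, 2–3 h, Ex 340/Em 490/520 nm; artifact plate spiked with phospho-substrate.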

Chain of GCN2 (Q9P2K8 whole entry): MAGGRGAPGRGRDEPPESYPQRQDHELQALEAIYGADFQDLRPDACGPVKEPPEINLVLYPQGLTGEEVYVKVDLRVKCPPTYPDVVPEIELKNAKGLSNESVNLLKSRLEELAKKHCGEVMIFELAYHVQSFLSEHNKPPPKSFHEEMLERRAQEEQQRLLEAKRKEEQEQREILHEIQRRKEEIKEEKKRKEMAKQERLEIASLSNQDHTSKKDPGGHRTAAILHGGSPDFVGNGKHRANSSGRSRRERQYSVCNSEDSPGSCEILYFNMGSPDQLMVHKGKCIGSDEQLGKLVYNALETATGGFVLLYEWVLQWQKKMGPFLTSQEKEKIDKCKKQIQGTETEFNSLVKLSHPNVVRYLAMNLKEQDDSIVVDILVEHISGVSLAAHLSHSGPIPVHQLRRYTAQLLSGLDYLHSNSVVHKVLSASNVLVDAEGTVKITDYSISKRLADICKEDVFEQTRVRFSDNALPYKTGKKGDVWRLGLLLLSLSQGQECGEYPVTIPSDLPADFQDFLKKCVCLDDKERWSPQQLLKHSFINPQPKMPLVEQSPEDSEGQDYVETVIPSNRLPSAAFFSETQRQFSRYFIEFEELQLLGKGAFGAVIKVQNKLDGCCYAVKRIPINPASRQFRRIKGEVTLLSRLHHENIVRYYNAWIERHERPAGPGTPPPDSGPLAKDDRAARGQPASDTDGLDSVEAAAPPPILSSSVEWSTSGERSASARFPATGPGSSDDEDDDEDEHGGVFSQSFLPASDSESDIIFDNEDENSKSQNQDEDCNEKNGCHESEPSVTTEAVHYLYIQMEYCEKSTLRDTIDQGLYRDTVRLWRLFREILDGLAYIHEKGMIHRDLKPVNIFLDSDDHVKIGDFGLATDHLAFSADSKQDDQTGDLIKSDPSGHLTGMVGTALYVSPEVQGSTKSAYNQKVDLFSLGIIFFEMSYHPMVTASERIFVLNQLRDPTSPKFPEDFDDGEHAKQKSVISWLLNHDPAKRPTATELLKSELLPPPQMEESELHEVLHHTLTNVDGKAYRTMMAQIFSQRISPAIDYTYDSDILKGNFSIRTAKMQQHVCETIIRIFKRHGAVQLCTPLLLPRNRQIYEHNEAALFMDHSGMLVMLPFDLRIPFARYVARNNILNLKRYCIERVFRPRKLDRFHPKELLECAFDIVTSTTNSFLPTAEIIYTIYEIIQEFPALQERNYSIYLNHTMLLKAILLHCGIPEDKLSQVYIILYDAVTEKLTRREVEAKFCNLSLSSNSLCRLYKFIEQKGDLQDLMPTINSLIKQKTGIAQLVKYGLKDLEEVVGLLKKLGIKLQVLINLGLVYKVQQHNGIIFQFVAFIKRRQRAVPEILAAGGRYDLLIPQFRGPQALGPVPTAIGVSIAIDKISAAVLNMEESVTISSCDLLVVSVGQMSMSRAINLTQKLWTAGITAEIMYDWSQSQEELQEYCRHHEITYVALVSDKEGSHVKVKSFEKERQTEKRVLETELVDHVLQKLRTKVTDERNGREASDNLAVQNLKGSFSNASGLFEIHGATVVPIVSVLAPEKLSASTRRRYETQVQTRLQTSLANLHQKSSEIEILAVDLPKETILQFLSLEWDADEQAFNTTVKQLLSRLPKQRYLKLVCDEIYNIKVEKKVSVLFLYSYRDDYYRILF

Cc1cnc(Nc2cc(C)n(C)n2)nc1-c1c[nH]c2c(N3Cc4c(cccc4-c4ccncc4N)C3=O)cccc12 [Example 447, 4-(3-aminopyridin-4-yl)-2-(3-(2-((1,5-dimethyl-1H-pyrazol-3-yl)amino)-5-methylpyrimidin-4-yl)-1H-indol-7-yl)isoindolin-1-one] and Cc1cnccc1-c1cccc2c1CN(c1cccc3c(-c4nc(Nc5cc(C)n(C)n5)ncc4C)c[nH]c13)C2=O [Example 455, 2-(3-(2-((1,5-dimethyl-1H-pyrazol-3-yl)amino)-5-methylpyrimidin-4-yl)-1H-indol-7-yl)-4-(3-methylpyridin-4-yl)isoindolin-1-one] cannot be ordered by IC50: less than 10 nM for the first, less than 10 nM for the second.

First: Cc1cnc(Nc2cc(C)n(C)n2)nc1-c1c[nH]c2c(N3Cc4c(cccc4-c4ccc5ccncc5c4)C3=O)cccc12 [Example 448, 2-(3-(2-((1,5-dimethyl-1H-pyrazol-3-yl)amino)-5-methylpyrimidin-4-yl)-1H-indol-7-yl)-4-(isoquinolin-7-yl)isoindolin-1-one]
Second: Cc1cnc(Nc2cc(C)n(C)n2)nc1-c1c[nH]c2c(N3Cc4c(cccc4-c4ccc5c(cnn5C)c4)C3=O)cccc12 [Example 449, 2-(3-(2-((1,5-dimethyl-1H-pyrazol-3-yl)amino)-5-methylpyrimidin-4-yl)-1H-indol-7-yl)-4-(i-methyl-1H-indazol-5-yl)isoindolin-1-one]
The IC50 of the first is lower: less than 10 nM for the first, 10 to 100 nM for the second.

First: Cc1cnc(Nc2cc(C)n(C)n2)nc1-c1c[nH]c2c(N3Cc4c(cccc4-c4ccc5cnn(C)c5c4)C3=O)cccc12 [Example 450, 2-(3-(2-((1,5-dimethyl-1H-pyrazol-3-yl)amino)-5-methylpyrimidin-4-yl)-1H-indol-7-yl)-4-(i-methyl-1H-indazol-6-yl)isoindolin-1-one]
Second: Cc1cnc(Nc2cc(C)n(C)n2)nc1-c1c[nH]c2c(N3Cc4c(cccc4-c4ccc(CO)cc4)C3=O)cccc12 [Example 460, 2-(3-(2-((1,5-dimethyl-1H-pyrazol-3-yl)amino)-5-methylpyrimidin-4-yl)-1H-indol-7-yl)-4-(4-(hydroxymethyl)phenyl)isoindolin-1-one]
The IC50 of the first is higher: 10 to 100 nM for the first, less than 10 nM for the second.

Cc1ccc(-c2cccc3c2CN(c2cccc4c(-c5nc(Nc6cc(C)n(C)n6)ncc5C)c[nH]c24)C3=O)s1 [Example 451, 2-(3-(2-((1,5-dimethyl-1H-pyrazol-3-yl)amino)-5-methylpyrimidin-4-yl)-1H-indol-7-yl)-4-(5-methylthiophen-2-yl)isoindolin-1-one] and Cc1cscc1-c1cccc2c1CN(c1cccc3c(-c4nc(Nc5cc(C)n(C)n5)ncc4C)c[nH]c13)C2=O [Example 453, 2-(3-(2-((1,5-dimethyl-1H-pyrazol-3-yl)amino)-5-methylpyrimidin-4-yl)-1H-indol-7-yl)-4-(4-methylthiophen-3-yl)isoindolin-1-one] fall in the same range of IC50: 10 to 100 nM for the first, 10 to 100 nM for the second.

First: Cc1cnc(Nc2cc(C)n(C)n2)nc1-c1c[nH]c2c(N3Cc4c(cccc4-c4ccc5c(c4)CCC5)C3=O)cccc12 [Example 452, 4-(2,3-dihydro-1H-inden-5-yl)-2-(3-(2-((1,5-dimethyl-1H-pyrazol-3-yl)amino)-5-methylpyrimidin-4-yl)-1H-indol-7-yl)isoindolin-1-one]
Second: Cc1cnc(Nc2cc(C)n(C)n2)nc1-c1c[nH]c2c(N3Cc4c(cccc4-c4ccsc4)C3=O)cccc12 [Example 461, 2-(3-(2-((1,5-dimethyl-1H-pyrazol-3-yl)amino)-5-methylpyrimidin-4-yl)-1H-indol-7-yl)-4-(thiophen-3-yl)isoindolin-1-one]
The IC50 of the first is higher: 100 to 1000 nM for the first, 10 to 100 nM for the second.

Cc1cc(-c2ccc(F)c3c2CN(c2cccc4c(-c5nc(Nc6cc(C)n(C)n6)ncc5C)c[nH]c24)C3=O)ccn1 [Example 454, 2-(3-(2-((1,5-dimethyl-1H-pyrazol-3-yl)amino)-5-methylpyrimidin-4-yl)-1H-indol-7-yl)-7-fluoro-4-(2-methylpyridin-4-yl)isoindolin-1-one] and Cc1cnc(Nc2cc(C)n(C)n2)nc1-c1c[nH]c2c(N3Cc4c(cccc4-c4ccnc(N(C)C)c4)C3=O)cccc12 [Example 475, 2-(3-(2-((1,5-dimethyl-1H-pyrazol-3-yl)amino)-5-methylpyrimidin-4-yl)-1H-indol-7-yl)-4-(2-(dimethylamino)pyridin-4-yl)isoindolin-1-one] cannot be ordered by IC50: less than 10 nM for the first, less than 10 nM for the second.

First: Cc1cnc(Nc2cc(C)n(C)n2)nc1-c1c[nH]c2c(N3Cc4c(cccc4-c4cc(N)ncn4)C3=O)cccc12 [Example 456, 4-(6-aminopyrimidin-4-yl)-2-(3-(2-((1,5-dimethyl-1H-pyrazol-3-yl)amino)-5-methylpyrimidin-4-yl)-1H-indol-7-yl)isoindolin-1-one]
Second: Cc1cnc(Nc2cc(C)n(C)n2)nc1-c1c[nH]c2c(N3Cc4c(cccc4-c4ccccc4N)C3=O)cccc12 [Example 462, 4-(2-aminophenyl)-2-(3-(2-((1,5-dimethyl-1H-pyrazol-3-yl)amino)-5-methylpyrimidin-4-yl)-1H-indol-7-yl)isoindolin-1-one]
The IC50 of the first is lower: less than 10 nM for the first, 10 to 100 nM for the second.

Compared with Cc1cnc(Nc2cc(C)n(C)n2)nc1-c1c[nH]c2c(N3Cc4c(cccc4-c4cccc5[nH]ncc45)C3=O)cccc12 [Example 457, 2-(3-(2-((1,5-dimethyl-1H-pyrazol-3-yl)amino)-5-methylpyrimidin-4-yl)-1H-indol-7-yl)-4-(1H-indazol-4-yl)isoindolin-1-one], Cc1cnc(Nc2cc(C)n(C)n2)nc1-c1c[nH]c2c(N3Cc4c(cccc4-c4ccccc4C(=O)O)C3=O)cccc12 [Example 458, 2-(2-(3-(2-((1,5-dimethyl-1H-pyrazol-3-yl)amino)-5-methylpyrimidin-4-yl)-1H-indol-7-yl)-1-oxoisoindolin-4-yl)benzoic acid] is higher in IC50: less than 10 nM for the first, 10 to 100 nM for the second. The first is the more potent here.

First: COC(=O)c1ccccc1-c1cccc2c1CN(c1cccc3c(-c4nc(Nc5cc(C)n(C)n5)ncc4C)c[nH]c13)C2=O [Example 463, methyl 2-(2-(3-(2-((1,5-dimethyl-1H-pyrazol-3-yl)amino)-5-methylpyrimidin-4-yl)-1H-indol-7-yl)-1-oxoisoindolin-4-yl)benzoate]
Second: Cc1cnc(Nc2cc(C)n(C)n2)nc1-c1c[nH]c2c(N3Cc4c(cccc4-c4ccncc4CO)C3=O)cccc12 [Example 471]
The IC50 of the first is higher: 100 to 1000 nM for the first, less than 10 nM for the second.

Cc1cnc(Nc2cc(C)n(C)n2)nc1-c1c[nH]c2c(N3Cc4c(cccc4C4=CCN(C)CC4)C3=O)cccc12 [Example 464, 2-(3-(2-((1,5-dimethyl-1H-pyrazol-3-yl)amino)-5-methylpyrimidin-4-yl)-1H-indol-7-yl)-4-(i-methyl-1,2,3,6-tetrahydropyridin-4-yl)isoindolin-1-one] and CC(=O)N1CC=C(c2cccc3c2CN(c2cccc4c(-c5nc(Nc6cc(C)n(C)n6)ncc5C)c[nH]c24)C3=O)CC1 [Example 466, 4-(1-acetyl-1,2,3,6-tetrahydropyridin-4-yl)-2-(3-(2-((1,5-dimethyl-1H-pyrazol-3-yl)amino)-5-methylpyrimidin-4-yl)-1H-indol-7-yl)isoindolin-1-one] cannot be ordered by IC50: less than 10 nM for the first, less than 10 nM for the second.

Cc1cnc(Nc2cc(C)n(C)n2)nc1-c1c[nH]c2c(N3Cc4c(cccc4C4=CCN(S(C)(=O)=O)CC4)C3=O)cccc12 [Example 465, 2-(3-(2-((1,5-dimethyl-1H-pyrazol-3-yl)amino)-5-methylpyrimidin-4-yl)-1H-indol-7-yl)-4-(1-(methylsulfonyl)-1,2,3,6-tetrahydropyridin-4-yl)isoindolin-1-one] and Cc1cnc(Nc2cc(C)n(C)n2)nc1-c1c[nH]c2c(N3Cc4c(cccc4C4=CCN(C(N)=O)CC4)C3=O)cccc12 [Example 467, 4-(2-(3-(2-((1,5-dimethyl-1H-pyrazol-3-yl)amino)-5-methylpyrimidin-4-yl)-1H-indol-7-yl)-1-oxoisoindolin-4-yl)-3,6-dihydropyridine-1(2H)-carboxamide] cannot be ordered by IC50: less than 10 nM for the first, less than 10 nM for the second.

Cc1cnc(Nc2cc(C)n(C)n2)nc1-c1c[nH]c2c(N3Cc4c(cccc4C4=CCS(=O)(=O)CC4)C3=O)cccc12 [Example 468, 2-(3-(2-((1,5-dimethyl-1H-pyrazol-3-yl)amino)-5-methylpyrimidin-4-yl)-1H-indol-7-yl)-4-(1,1-dioxido-3,6-dihydro-2H-thiopyran-4-yl)isoindolin-1-one] and Cc1cnc(Nc2cc(C)n(C)n2)nc1-c1c[nH]c2c(N3Cc4c(cccc4-c4ccnc(C(N)=O)c4)C3=O)cccc12 [Example 473, 4-(2-(3-(2-((1,5-dimethyl-1H-pyrazol-3-yl)amino)-5-methylpyrimidin-4-yl)-1H-indol-7-yl)-1-oxoisoindolin-4-yl)picolinamide] cannot be ordered by IC50: less than 10 nM for the first, less than 10 nM for the second.

Cc1cnc(Nc2cc(C)n(C)n2)nc1-c1c[nH]c2c(N3Cc4c(cccc4-c4ccnc(C#N)c4)C3=O)cccc12 [Example 469, 4-(2-(3-(2-((1,5-dimethyl-1H-pyrazol-3-yl)amino)-5-methylpyrimidin-4-yl)-1H-indol-7-yl)-1-oxoisoindolin-4-yl)picolinonitrile] and Cc1cnc(Nc2cc(C)n(C)n2)nc1-c1c[nH]c2c(N3Cc4c(cccc4-c4ccc(C#N)nc4)C3=O)cccc12 [Example 470, 5-(2-(3-(2-((1,5-dimethyl-1H-pyrazol-3-yl)amino)-5-methylpyrimidin-4-yl)-1H-indol-7-yl)-1-oxoisoindolin-4-yl)picolinonitrile] cannot be ordered by IC50: less than 10 nM for the first, less than 10 nM for the second.

Cc1cnc(Nc2cc(C)n(C)n2)nc1-c1c[nH]c2c(N3Cc4c(cccc4-c4ccnc(CO)c4)C3=O)cccc12 [Example 472, 2-(3-(2-((1,5-dimethyl-1H-pyrazol-3-yl)amino)-5-methylpyrimidin-4-yl)-1H-indol-7-yl)-4-(2-(hydroxymethyl)pyridin-4-yl)isoindolin-1-one] and Cc1cnc(Nc2cc(C)n(C)n2)nc1-c1c[nH]c2c(N3Cc4c(cccc4-c4ccc(C(N)=O)nc4)C3=O)cccc12 [Example 474, 5-(2-(3-(2-((1,5-dimethyl-1H-pyrazol-3-yl)amino)-5-methylpyrimidin-4-yl)-1H-indol-7-yl)-1-oxoisoindolin-4-yl)picolinamide] cannot be ordered by IC50: less than 10 nM for the first, less than 10 nM for the second.
